# Key:
# Experiment in all cases: KINOMEscan competition binding
# Details in all cases: compound 0.5 µM
# ACVR1B (human) = ACVR1B (human) (UniProt P36896)
# [1] = test system: BRAF (human), P15056 [V600E]
# CAMKK2 (human) = CAMKK2 (human) (UniProt Q96RR4)
# CDK11B (human) = CDK11B (human) (UniProt P21127)
# CDK7 (human) = CDK7 (human) (UniProt P50613)
# CRK2 (P.falciparum) = CRK2 (P.falciparum) (UniProt P61075)
# DCLK1 (human) = DCLK1 (human) (UniProt O15075)
# EIF2AK1 (human) = EIF2AK1 (human) (UniProt Q9BQI3)
# EPHA2 (human) = EPHA2 (human) (UniProt P29317)
# EPHA6 (human) = EPHA6 (human) (UniProt Q9UF33)
# FGFR3 (human) = FGFR3 (human) (UniProt P22607)
# FRK (human) = FRK (human) (UniProt P42685)
# GRK7 (human) = GRK7 (human) (UniProt Q8WTQ7)
# [2] = test system: KIT (human), P10721 [V559D/T670I]
# KIT (human), P10721 [V559D/T670I], sequence (P10721 whole entry V559D/T670I, looked up): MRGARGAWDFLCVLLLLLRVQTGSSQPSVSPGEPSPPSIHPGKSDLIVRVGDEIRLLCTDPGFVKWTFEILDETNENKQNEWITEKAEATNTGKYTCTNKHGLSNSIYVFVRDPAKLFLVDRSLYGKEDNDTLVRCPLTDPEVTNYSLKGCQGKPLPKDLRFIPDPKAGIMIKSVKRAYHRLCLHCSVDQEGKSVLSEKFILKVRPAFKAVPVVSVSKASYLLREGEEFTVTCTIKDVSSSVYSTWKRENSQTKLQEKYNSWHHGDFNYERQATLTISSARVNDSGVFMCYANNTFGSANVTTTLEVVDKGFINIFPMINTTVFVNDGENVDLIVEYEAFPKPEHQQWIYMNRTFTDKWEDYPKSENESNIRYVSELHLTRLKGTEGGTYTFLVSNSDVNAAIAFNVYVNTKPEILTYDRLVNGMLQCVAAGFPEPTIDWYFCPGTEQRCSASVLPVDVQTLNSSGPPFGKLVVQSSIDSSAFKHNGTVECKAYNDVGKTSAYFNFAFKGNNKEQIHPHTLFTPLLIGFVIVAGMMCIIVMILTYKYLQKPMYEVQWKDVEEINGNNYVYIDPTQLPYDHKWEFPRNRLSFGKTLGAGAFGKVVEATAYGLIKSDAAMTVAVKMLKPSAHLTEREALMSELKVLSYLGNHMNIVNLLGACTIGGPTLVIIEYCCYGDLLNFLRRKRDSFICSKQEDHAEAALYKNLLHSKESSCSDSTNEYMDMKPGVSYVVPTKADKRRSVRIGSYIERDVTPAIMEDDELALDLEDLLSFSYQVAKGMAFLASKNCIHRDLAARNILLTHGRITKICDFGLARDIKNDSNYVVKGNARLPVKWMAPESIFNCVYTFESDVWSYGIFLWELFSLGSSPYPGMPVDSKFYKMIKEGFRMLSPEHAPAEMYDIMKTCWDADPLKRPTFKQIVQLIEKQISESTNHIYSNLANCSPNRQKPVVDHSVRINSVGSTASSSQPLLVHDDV
# LIMK1 (human) = LIMK1 (human) (UniProt P53667)
# LIMK1 (human), sequence (P53667 whole entry, looked up): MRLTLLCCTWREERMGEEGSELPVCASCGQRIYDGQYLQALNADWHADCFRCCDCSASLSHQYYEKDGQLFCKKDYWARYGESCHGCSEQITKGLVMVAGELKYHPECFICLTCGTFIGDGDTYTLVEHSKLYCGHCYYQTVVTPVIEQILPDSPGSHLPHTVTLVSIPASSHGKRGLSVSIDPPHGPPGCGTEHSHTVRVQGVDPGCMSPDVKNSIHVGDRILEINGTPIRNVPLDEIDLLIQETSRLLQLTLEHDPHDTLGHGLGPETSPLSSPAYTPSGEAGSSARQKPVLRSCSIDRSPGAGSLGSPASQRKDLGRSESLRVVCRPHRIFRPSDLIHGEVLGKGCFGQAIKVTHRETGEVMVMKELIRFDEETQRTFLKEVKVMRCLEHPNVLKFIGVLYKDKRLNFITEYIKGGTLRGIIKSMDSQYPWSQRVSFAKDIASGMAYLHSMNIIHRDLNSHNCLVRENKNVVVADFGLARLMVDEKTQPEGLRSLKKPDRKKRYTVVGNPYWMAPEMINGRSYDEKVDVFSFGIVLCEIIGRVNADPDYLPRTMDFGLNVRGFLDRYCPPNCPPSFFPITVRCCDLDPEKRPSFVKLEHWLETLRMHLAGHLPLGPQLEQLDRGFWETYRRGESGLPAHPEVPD
# [3] = test system: LRRK2 (human), Q5S007 [G2019S]
# MAP2K4 (human) = MAP2K4 (human) (UniProt P45985)
# MAP2K6 (human) = MAP2K6 (human) (UniProt P52564)
# MAP2K7 (human) = MAP2K7 (human) (UniProt O14733)
# MAP4K4 (human) = MAP4K4 (human) (UniProt O95819)
# MAPK1 (human) = MAPK1 (human) (UniProt P28482)
# MAPK6 (human) = MAPK6 (human) (UniProt Q16659)
# MAPKAPK5 (human) = MAPKAPK5 (human) (UniProt Q8IW41)
# MARK3 (human) = MARK3 (human) (UniProt P27448)
# MARK3 (human), sequence (P27448 whole entry, looked up): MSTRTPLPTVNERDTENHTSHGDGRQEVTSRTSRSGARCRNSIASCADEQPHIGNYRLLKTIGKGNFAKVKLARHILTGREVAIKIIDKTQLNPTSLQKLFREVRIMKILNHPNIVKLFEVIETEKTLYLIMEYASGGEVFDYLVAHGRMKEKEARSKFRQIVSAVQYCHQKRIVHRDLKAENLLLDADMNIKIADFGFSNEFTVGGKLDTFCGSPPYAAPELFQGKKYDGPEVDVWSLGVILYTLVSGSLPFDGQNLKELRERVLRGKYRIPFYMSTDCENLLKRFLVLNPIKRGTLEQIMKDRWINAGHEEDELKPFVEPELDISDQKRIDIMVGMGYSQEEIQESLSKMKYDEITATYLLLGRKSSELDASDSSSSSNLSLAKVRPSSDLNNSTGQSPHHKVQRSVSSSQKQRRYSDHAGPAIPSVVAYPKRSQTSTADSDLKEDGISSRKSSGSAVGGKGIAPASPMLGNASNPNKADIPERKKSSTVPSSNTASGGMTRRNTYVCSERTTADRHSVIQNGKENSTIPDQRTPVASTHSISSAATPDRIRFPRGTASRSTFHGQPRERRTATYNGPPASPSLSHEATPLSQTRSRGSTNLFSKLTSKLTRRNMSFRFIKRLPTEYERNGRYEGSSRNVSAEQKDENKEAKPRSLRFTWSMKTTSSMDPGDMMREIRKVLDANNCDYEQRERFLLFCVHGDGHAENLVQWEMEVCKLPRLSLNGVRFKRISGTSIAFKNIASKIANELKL
# MATK (human) = MATK (human) (UniProt P42679)
# MINK1 (human) = MINK1 (human) (UniProt Q8N4C8)
# NEK4 (human) = NEK4 (human) (UniProt P51957)
# NLK (human) = NLK (human) (UniProt Q9UBE8)
# PHKG1 (human) = PHKG1 (human) (UniProt Q16816)
# PIP4K2B (human) = PIP4K2B (human) (UniProt P78356)
# PIP4K2B (human), sequence (P78356 whole entry, looked up): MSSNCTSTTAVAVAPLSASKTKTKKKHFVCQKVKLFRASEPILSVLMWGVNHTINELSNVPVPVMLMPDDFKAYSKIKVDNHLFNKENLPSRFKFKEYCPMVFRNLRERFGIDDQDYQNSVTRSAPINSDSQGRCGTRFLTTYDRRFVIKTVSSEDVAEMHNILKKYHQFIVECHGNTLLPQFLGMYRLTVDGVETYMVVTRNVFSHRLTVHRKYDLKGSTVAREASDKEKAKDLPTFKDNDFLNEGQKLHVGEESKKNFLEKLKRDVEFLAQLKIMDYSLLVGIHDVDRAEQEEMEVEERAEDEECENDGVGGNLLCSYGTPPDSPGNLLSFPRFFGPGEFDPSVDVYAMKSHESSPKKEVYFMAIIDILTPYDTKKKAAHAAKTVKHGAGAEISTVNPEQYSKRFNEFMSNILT
# PRKG1 (human) = PRKG1 (human) (UniProt Q13976)
# [4] = test system: RET (human), P07949 [V804M]
# ROCK2 (human) = ROCK2 (human) (UniProt O75116)
# RPS6KA1 KD2 (human) = RPS6KA1 KD2 (human) (UniProt Q15418)
# RPS6KA2 KD2 (human) = RPS6KA2 KD2 (human) (UniProt Q15349)
# RPS6KA4 KD2 (human) = RPS6KA4 KD2 (human) (UniProt O75676)
# RPS6KA4 KD2 (human), sequence (O75676 whole entry, looked up): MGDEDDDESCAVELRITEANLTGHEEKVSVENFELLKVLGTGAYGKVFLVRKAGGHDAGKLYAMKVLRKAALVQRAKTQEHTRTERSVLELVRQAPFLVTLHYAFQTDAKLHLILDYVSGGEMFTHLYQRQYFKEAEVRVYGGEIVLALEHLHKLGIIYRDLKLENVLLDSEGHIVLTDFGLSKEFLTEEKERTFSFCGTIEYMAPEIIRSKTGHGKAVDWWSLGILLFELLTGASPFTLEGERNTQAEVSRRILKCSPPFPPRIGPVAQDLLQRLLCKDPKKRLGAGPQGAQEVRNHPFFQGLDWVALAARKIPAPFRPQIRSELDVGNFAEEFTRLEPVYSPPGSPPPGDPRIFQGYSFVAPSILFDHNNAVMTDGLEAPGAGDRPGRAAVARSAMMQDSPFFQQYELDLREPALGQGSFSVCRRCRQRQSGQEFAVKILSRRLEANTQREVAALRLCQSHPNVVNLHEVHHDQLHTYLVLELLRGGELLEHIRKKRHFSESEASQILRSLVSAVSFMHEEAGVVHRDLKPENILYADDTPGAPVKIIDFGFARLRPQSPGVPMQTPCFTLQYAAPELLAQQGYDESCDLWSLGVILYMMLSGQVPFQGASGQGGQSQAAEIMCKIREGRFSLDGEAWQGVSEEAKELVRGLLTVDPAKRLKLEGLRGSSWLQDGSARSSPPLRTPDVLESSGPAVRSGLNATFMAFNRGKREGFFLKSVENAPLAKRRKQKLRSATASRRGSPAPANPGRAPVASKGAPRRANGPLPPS
# STK17A (human) = STK17A (human) (UniProt Q9UEE5)
# STK17A (human), sequence (Q9UEE5 whole entry, looked up): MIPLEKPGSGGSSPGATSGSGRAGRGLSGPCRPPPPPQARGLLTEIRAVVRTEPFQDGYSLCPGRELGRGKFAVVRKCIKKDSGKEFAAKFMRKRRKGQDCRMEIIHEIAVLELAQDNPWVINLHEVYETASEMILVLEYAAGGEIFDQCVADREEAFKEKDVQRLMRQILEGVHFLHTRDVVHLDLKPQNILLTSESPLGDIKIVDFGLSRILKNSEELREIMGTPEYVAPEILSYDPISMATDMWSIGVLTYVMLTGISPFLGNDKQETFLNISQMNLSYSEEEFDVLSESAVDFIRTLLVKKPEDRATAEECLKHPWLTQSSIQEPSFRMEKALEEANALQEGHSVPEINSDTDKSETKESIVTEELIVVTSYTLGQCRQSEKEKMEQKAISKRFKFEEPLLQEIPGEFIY
# STK38L (human) = STK38L (human) (UniProt Q9Y2H1)
# TLK2 (human) = TLK2 (human) (UniProt Q86UE8)
# TXK (human) = TXK (human) (UniProt P42681)
# YES1 (human) = YES1 (human) (UniProt P07947)
# CDK11B (human), sequence (P21127 whole entry, looked up): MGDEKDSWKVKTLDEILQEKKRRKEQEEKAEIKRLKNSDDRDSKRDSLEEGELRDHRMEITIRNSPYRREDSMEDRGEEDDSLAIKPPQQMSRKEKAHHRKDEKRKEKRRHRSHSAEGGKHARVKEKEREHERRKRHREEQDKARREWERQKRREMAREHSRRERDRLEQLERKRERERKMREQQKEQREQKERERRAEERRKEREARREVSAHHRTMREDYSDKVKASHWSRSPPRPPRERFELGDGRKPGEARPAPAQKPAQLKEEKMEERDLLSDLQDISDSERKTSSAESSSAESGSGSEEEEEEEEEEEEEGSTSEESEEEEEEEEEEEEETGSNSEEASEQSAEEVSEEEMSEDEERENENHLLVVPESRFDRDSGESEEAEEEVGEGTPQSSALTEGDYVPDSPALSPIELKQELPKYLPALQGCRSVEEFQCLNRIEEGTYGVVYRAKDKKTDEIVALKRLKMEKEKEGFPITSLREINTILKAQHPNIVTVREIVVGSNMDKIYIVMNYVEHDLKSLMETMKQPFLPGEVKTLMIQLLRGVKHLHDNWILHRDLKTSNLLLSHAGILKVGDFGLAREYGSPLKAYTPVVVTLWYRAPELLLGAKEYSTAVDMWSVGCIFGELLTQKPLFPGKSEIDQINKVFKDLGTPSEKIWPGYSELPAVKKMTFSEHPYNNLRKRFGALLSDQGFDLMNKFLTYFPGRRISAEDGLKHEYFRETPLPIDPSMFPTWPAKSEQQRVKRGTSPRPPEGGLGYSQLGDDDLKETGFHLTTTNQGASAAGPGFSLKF
smiles,measurement,setting,value
Cn1c2ccccc2c2c3c(c4c5ccccc5n(CCC#N)c4c21)CNC3=O,"kinase still bound, per cent of control",ACVR1B (human),85%
same,"kinase still bound, per cent of control",[1],92%
same,"kinase still bound, per cent of control",CAMKK2 (human),1.6%
same,"kinase still bound, per cent of control",CDK11B (human),100%
same,"kinase still bound, per cent of control",CDK7 (human),84%
same,"kinase still bound, per cent of control",CRK2 (P.falciparum),85%
same,"kinase still bound, per cent of control",DCLK1 (human),87%
same,"kinase still bound, per cent of control",EIF2AK1 (human),100%
same,"kinase still bound, per cent of control",EPHA2 (human),87%
same,"kinase still bound, per cent of control",EPHA6 (human),86%
same,"kinase still bound, per cent of control",FGFR3 (human),97%
same,"kinase still bound, per cent of control",FRK (human),84%
same,"kinase still bound, per cent of control",GRK7 (human),10%
same,"kinase still bound, per cent of control",[2],57%
same,"kinase still bound, per cent of control",LIMK1 (human),96%
same,"kinase still bound, per cent of control",[3],9.4%
same,"kinase still bound, per cent of control",MAP2K4 (human),1.2%
same,"kinase still bound, per cent of control",MAP2K6 (human),15%
same,"kinase still bound, per cent of control",MAP2K7 (human),79%
same,"kinase still bound, per cent of control",MAP4K4 (human),2.2%
same,"kinase still bound, per cent of control",MAPK1 (human),100%
same,"kinase still bound, per cent of control",MAPK6 (human),74%
same,"kinase still bound, per cent of control",MAPKAPK5 (human),100%
same,"kinase still bound, per cent of control",MARK3 (human),16%
same,"kinase still bound, per cent of control",MATK (human),67%
same,"kinase still bound, per cent of control",MINK1 (human),1%
same,"kinase still bound, per cent of control",NEK4 (human),100%
same,"kinase still bound, per cent of control",NLK (human),100%
same,"kinase still bound, per cent of control",PHKG1 (human),0.1%
same,"kinase still bound, per cent of control",PIP4K2B (human),2%
same,"kinase still bound, per cent of control",PRKG1 (human),67%
same,"kinase still bound, per cent of control",[4],0%
same,"kinase still bound, per cent of control",ROCK2 (human),18%
same,"kinase still bound, per cent of control",RPS6KA1 KD2 (human),88%
same,"kinase still bound, per cent of control",RPS6KA2 KD2 (human),100%
same,"kinase still bound, per cent of control",RPS6KA4 KD2 (human),100%
same,"kinase still bound, per cent of control",STK17A (human),71%
same,"kinase still bound, per cent of control",STK38L (human),66%
same,"kinase still bound, per cent of control",TLK2 (human),88%
same,"kinase still bound, per cent of control",TXK (human),11%
same,"kinase still bound, per cent of control",YES1 (human),96%

# Reference: the kinase profiling compilation of Christmann-Franck et al. (2016)
